Test results as given in patent US11117930B2, “Peptide inhibitors of transcription factor aggregation” (ADRX, INC., priority 2017, dated 2021).
Like-named read-outs stand apart in the source and are kept apart here. Non-standard residues stand in square brackets, D forms with d. Residues, ends and D or L forms follow the SMILES beside them. No end group written: not given here.

Key:
Detroit-562 = type: cell-based; details: 24 h
Protocol: (§1) To render the inhibitors cell permeable, the peptides are fused to either a nine-residue poly L-Arg tag or a nine-residue poly D-Arg tag, through one of several three-residue linkers, either L-RPI, D-RPI, or D-GGG. Cancer cell lines, e.g. OVCAR-3, and Detroit 562 are treated with the peptide conjugates for 24 hours by the following method. OVCAR3 and Detroit-562 cells are grown in ATCC recommended growth media. The peptides were made in a 4 mM stock. Cells are plated in 96-well flat bottom clear plates at 7000 cells/well. After 24 hours, compounds are serially diluted in one-third [starting at 33 μM] or one-half [starting at 30 μM] dilutions in PrEGM media (Lonza). Growth media was removed from the wells and compound in PrEGM was added to 100 ul final volume. 24 hours post-compound addition cell metabolism was measured by addition of 20 μl MTS solution (Promega, cell-titer 96 aqueous). Absorbance was read at 490 nm following a 2 hour incubation and data was processed in Prism Graphpad to generate EC50 values.

OVCAR3 = type: cell-based; details: 24 h
Protocol: as §1

Stability in human serum = type: in vitro ADME; details: CPP linked peptides, read-out: Stability in Human Serum (t1/2)
[1] = Protein binding in human serum; type: in vitro ADME; details: CPP linked peptides

Row | Molecule | EC50 (Detroit-562) [µM] | EC50 (OVCAR3) [µM] | half-life (Stability in human serum) [h] | fraction unbound [1] | half-life (Stability in human serum; cells given in hr) [h]
1 | CC[C@H](C)[C@H](NC(=O)[C@@H]1CCCN1C(=O)[C@H](CCCNC(=N)N)NC(=O)[C@H](CCCNC(=N)N)NC(=O)[C@H](CCCNC(=N)N)NC(=O)[C@H](CCCNC(=N)N)NC(=O)[C@H](CCCNC(=N)N)NC(=O)[C@H](CCCNC(=N)N)NC(=O)[C@H](CCCNC(=N)N)NC(=O)[C@H](CCCNC(=N)N)NC(=O)[C@H](CCCNC(=N)N)NC(=O)[C@@H](N)CCCNC(=N)N)C(=O)N[C@H](CCCCN)C(=O)N[C@H](Cc1ccccc1)C(=O)N[C@H](CCCNC(=N)N)C(=O)N[C@H](Cc1ccccc1)C(=O)N[C@H](Cc1ccc(O)cc1)C(=O)N[C@H](Cc1c[nH]cn1)C(=O)N[C@H](CCCNC(=N)N)C(=O)O [RRRRRRRRRRPIkfrfyhr] (H-RRRRRRRRRRPI[dK][dF][dR][dF][dY][dH][dR]-OH; N-terminus and C-terminus assumed) | 15 | 11 | 4.42 | 0.19 | –
2 | CC[C@H](C)[C@H](NC(=O)[C@@H]1CCCN1C(=O)[C@H](CCCNC(=N)N)NC(=O)[C@H](CCCNC(=N)N)NC(=O)[C@H](CCCNC(=N)N)NC(=O)[C@H](CCCNC(=N)N)NC(=O)[C@H](CCCNC(=N)N)NC(=O)[C@H](CCCNC(=N)N)NC(=O)[C@H](CCCNC(=N)N)NC(=O)[C@H](CCCNC(=N)N)NC(=O)[C@H](CCCNC(=N)N)NC(=O)[C@@H](N)CCCNC(=N)N)C(=O)N[C@H](CCC(N)=O)C(=O)N[C@H](CCC(N)=O)C(=O)N[C@H](CCCNC(=N)N)C(=O)N[C@H](Cc1ccc(O)cc1)C(=O)N[C@H](Cc1ccc(O)cc1)C(=O)N[C@H](Cc1c[nH]c2ccccc12)C(=O)N[C@H](CCCNC(=N)N)C(=O)O [RRRRRRRRRRPIqqryywr] (H-RRRRRRRRRRPI[dQ][dQ][dR][dY][dY][dW][dR]-OH; N-terminus and C-terminus assumed) | 12 | 22 | 10 | 0.18 | –
3 | CC[C@H](C)[C@H](NC(=O)[C@@H]1CCCN1C(=O)[C@H](CCCNC(=N)N)NC(=O)[C@H](CCCNC(=N)N)NC(=O)[C@H](CCCNC(=N)N)NC(=O)[C@H](CCCNC(=N)N)NC(=O)[C@H](CCCNC(=N)N)NC(=O)[C@H](CCCNC(=N)N)NC(=O)[C@H](CCCNC(=N)N)NC(=O)[C@H](CCCNC(=N)N)NC(=O)[C@H](CCCNC(=N)N)NC(=O)[C@@H](N)CCCNC(=N)N)C(=O)N[C@H](CCCNC(=N)N)C(=O)N[C@H](Cc1ccccc1)C(=O)N[C@H](Cc1ccc(O)cc1)C(=O)N[C@H](Cc1ccc(O)cc1)C(=O)N[C@H](Cc1c[nH]cn1)C(=O)N[C@H](CCCNC(=N)N)C(=O)N[C@H](CCCNC(=N)N)C(=O)O [RRRRRRRRRRPIrfyyhrr] (H-RRRRRRRRRRPI[dR][dF][dY][dY][dH][dR][dR]-OH; N-terminus and C-terminus assumed) | 9 | 16 | 0.95 | 0.09 | –
4 | CC[C@H](C)[C@H](NC(=O)[C@@H]1CCCN1C(=O)[C@H](CCCNC(=N)N)NC(=O)[C@H](CCCNC(=N)N)NC(=O)[C@H](CCCNC(=N)N)NC(=O)[C@H](CCCNC(=N)N)NC(=O)[C@H](CCCNC(=N)N)NC(=O)[C@H](CCCNC(=N)N)NC(=O)[C@H](CCCNC(=N)N)NC(=O)[C@H](CCCNC(=N)N)NC(=O)[C@H](CCCNC(=N)N)NC(=O)[C@@H](N)CCCNC(=N)N)C(=O)N[C@H](Cc1ccc(O)cc1)C(=O)N[C@H](CCC(N)=O)C(=O)N[C@H](Cc1c[nH]c2ccccc12)C(=O)N[C@H](Cc1ccc(O)cc1)C(=O)N[C@H](CCCNC(=N)N)C(=O)N[C@H](Cc1c[nH]c2ccccc12)C(=O)N[C@H](CCC(N)=O)C(=O)O [RRRRRRRRRRPIyqwyrwq] (H-RRRRRRRRRRPI[dY][dQ][dW][dY][dR][dW][dQ]-OH; N-terminus and C-terminus assumed) | 13 | 10 | 0.833 | 0.02 | –
5 | N=C(N)NCCC[C@@H](N)C(=O)N[C@H](CCCNC(=N)N)C(=O)N[C@H](CCCNC(=N)N)C(=O)N[C@H](CCCNC(=N)N)C(=O)N[C@H](CCCNC(=N)N)C(=O)N[C@H](CCCNC(=N)N)C(=O)N[C@H](CCCNC(=N)N)C(=O)N[C@H](CCCNC(=N)N)C(=O)N[C@H](CCCNC(=N)N)C(=O)NCC(=O)NCC(=O)NCC(=O)N[C@H](Cc1ccc(O)cc1)C(=O)N[C@H](CCC(N)=O)C(=O)N[C@H](Cc1c[nH]c2ccccc12)C(=O)N[C@H](Cc1ccc(O)cc1)C(=O)N[C@H](CCCNC(=N)N)C(=O)N[C@H](Cc1c[nH]c2ccccc12)C(=O)N[C@H](CCC(N)=O)C(=O)O [rrrrrrrrrgggyqwyrwq] (H-[dR][dR][dR][dR][dR][dR][dR][dR][dR]GGG[dY][dQ][dW][dY][dR][dW][dQ]-OH; N-terminus and C-terminus assumed) | 8 | 6 | – | 0.11 | > 24
6 | CC[C@@H](C)[C@@H](NC(=O)[C@H]1CCCN1C(=O)[C@@H](CCCNC(=N)N)NC(=O)[C@@H](CCCNC(=N)N)NC(=O)[C@@H](CCCNC(=N)N)NC(=O)[C@@H](CCCNC(=N)N)NC(=O)[C@@H](CCCNC(=N)N)NC(=O)[C@@H](CCCNC(=N)N)NC(=O)[C@@H](CCCNC(=N)N)NC(=O)[C@@H](CCCNC(=N)N)NC(=O)[C@@H](CCCNC(=N)N)NC(=O)[C@H](N)CCCNC(=N)N)C(=O)N[C@H](Cc1c[nH]cn1)C(=O)N[C@H](CC(C)C)C(=O)N[C@H](CCCNC(=N)N)C(=O)N[C@@H](C(=O)N[C@H](Cc1c[nH]c2ccccc12)C(=O)N[C@H](CCCNC(=N)N)C(=O)N[C@H](CC(N)=O)C(=O)O)[C@H](C)CC [rrrrrrrrrrpihlriwrn] (H-[dR][dR][dR][dR][dR][dR][dR][dR][dR][dR][dP][dI][dH][dL][dR][dI][dW][dR][dN]-OH; N-terminus and C-terminus assumed) | 4 | 4 | – | 0.05 | > 24
7 | CC[C@@H](C)[C@@H](NC(=O)[C@H]1CCCN1C(=O)[C@@H](CCCNC(=N)N)NC(=O)[C@@H](CCCNC(=N)N)NC(=O)[C@@H](CCCNC(=N)N)NC(=O)[C@@H](CCCNC(=N)N)NC(=O)[C@@H](CCCNC(=N)N)NC(=O)[C@@H](CCCNC(=N)N)NC(=O)[C@@H](CCCNC(=N)N)NC(=O)[C@@H](CCCNC(=N)N)NC(=O)[C@@H](CCCNC(=N)N)NC(=O)[C@H](N)CCCNC(=N)N)C(=O)N[C@H](Cc1c[nH]cn1)C(=O)N[C@H](CCC(N)=O)C(=O)N[C@H](CCCNC(=N)N)C(=O)N[C@H](CCC(N)=O)C(=O)N[C@H](Cc1ccc(O)cc1)C(=O)N[C@H](CCC(N)=O)C(=O)N[C@H](CCCNC(=N)N)C(=O)O [rrrrrrrrrrpihqrqyqr] (H-[dR][dR][dR][dR][dR][dR][dR][dR][dR][dR][dP][dI][dH][dQ][dR][dQ][dY][dQ][dR]-OH; N-terminus and C-terminus assumed) | 35 | 27 | – | 0.88 | > 24
8 | CC[C@@H](C)[C@@H](NC(=O)[C@H]1CCCN1C(=O)[C@@H](CCCNC(=N)N)NC(=O)[C@@H](CCCNC(=N)N)NC(=O)[C@@H](CCCNC(=N)N)NC(=O)[C@@H](CCCNC(=N)N)NC(=O)[C@@H](CCCNC(=N)N)NC(=O)[C@@H](CCCNC(=N)N)NC(=O)[C@@H](CCCNC(=N)N)NC(=O)[C@@H](CCCNC(=N)N)NC(=O)[C@@H](CCCNC(=N)N)NC(=O)[C@H](N)CCCNC(=N)N)C(=O)N[C@H](CCCCN)C(=O)N[C@H](Cc1ccccc1)C(=O)N[C@H](CCCNC(=N)N)C(=O)N[C@H](Cc1ccccc1)C(=O)N[C@H](Cc1ccc(O)cc1)C(=O)N[C@H](Cc1c[nH]cn1)C(=O)N[C@H](CCCNC(=N)N)C(=O)O [rrrrrrrrrrpikfrfyhr] (H-[dR][dR][dR][dR][dR][dR][dR][dR][dR][dR][dP][dI][dK][dF][dR][dF][dY][dH][dR]-OH) | 5 | 4 | – | 0.14 | > 24
9 | CC[C@@H](C)[C@@H](NC(=O)[C@H]1CCCN1C(=O)[C@@H](CCCNC(=N)N)NC(=O)[C@@H](CCCNC(=N)N)NC(=O)[C@@H](CCCNC(=N)N)NC(=O)[C@@H](CCCNC(=N)N)NC(=O)[C@@H](CCCNC(=N)N)NC(=O)[C@@H](CCCNC(=N)N)NC(=O)[C@@H](CCCNC(=N)N)NC(=O)[C@@H](CCCNC(=N)N)NC(=O)[C@@H](CCCNC(=N)N)NC(=O)[C@H](N)CCCNC(=N)N)C(=O)N[C@H](CCCCN)C(=O)N[C@H](Cc1c[nH]c2ccccc12)C(=O)N[C@H](CCCNC(=N)N)C(=O)N[C@H](Cc1c[nH]c2ccccc12)C(=O)N[C@H](Cc1ccc(O)cc1)C(=O)N[C@H](CCCNC(=N)N)C(=O)N[C@H](CCCNC(=N)N)C(=O)O [rrrrrrrrrrpikwrwyrr] (H-[dR][dR][dR][dR][dR][dR][dR][dR][dR][dR][dP][dI][dK][dW][dR][dW][dY][dR][dR]-OH; N-terminus and C-terminus assumed) | 5 | 4 | – | 0.06 | > 24
10 | PRRRRRRRRRRPIWTIKLWHP | 6 | 4 | – | – | –
